Measurements from PubChem BioAssay (NCI).
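Dose response: 5 concentrations. Exposure: 48 h. Format: 96-well plates. Endpoint: linear interpolation; highest concentration if not reached. The concentration for full growth arrest is given as TGI.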

Tests used:
Assay in all cases: NCI tumour cell line growth inhibition, 48 h
[1] = system: RXF 393 renal
[2] = system: SF-268 CNS
[3] = system: SR leukemia
[4] = system: SF-539 CNS
[5] = system: COLO 205 colon
[6] = system: SK-MEL-28 melanoma
[7] = system: UACC-257 melanoma
[8] = system: MALME-3M melanoma
[9] = system: MCF7 breast
[10] = system: CCRF-CEM leukemia
[11] = system: A498 renal
[12] = system: HOP-92 NSCLC
[13] = system: A549 NSCLC
[14] = system: OVCAR-8 ovarian
[15] = system: NCI/ADR-RES ovarian
[16] = system: CAKI-1 renal
[17] = system: NCI-H522 lung
[18] = system: OVCAR-3 ovarian
[19] = system: NCI-H23 lung
[20] = system: SNB-75 CNS

**Q.** Which TGI [1] does the source give for `COC(=O)C1=C(OC(=O)/C(=C/c2ccccc2)c2ccc(Cl)cc2)C(C(=O)OC)[C@@]2(O)[C@@H](C(=O)OC)[C@H](C)C[C@@H]1[C@@H]2C(=O)OC` (stereo not given in full) here?
**A.** The TGI was over 100 µM.

**Q.** And the TGI [2]?
**A.** Its TGI is over 100 µM.

**Q.** And the TGI [3]?
**A.** The TGI was over 100 µM.

**Q.** And the TGI [4]?
**A.** The TGI was over 100 µM.

**Q.** And the TGI [5]?
**A.** Its TGI is over 100 µM.

**Q.** What about the TGI [6] of the same molecule?
**A.** The TGI was over 100 µM.

**Q.** What about the TGI [7] of the same molecule?
**A.** Its TGI is over 100 µM.

**Q.** And the TGI [8]?
**A.** Its TGI is over 100 µM.

**Q.** And the TGI [9]?
**A.** The TGI was over 100 µM.

**Q.** What about the TGI [10] of the same molecule?
**A.** Its TGI is over 100 µM.

**Q.** What about the TGI [11] of the same molecule?
**A.** Its TGI is over 100 µM.

**Q.** And the TGI [12]?
**A.** The TGI was over 100 µM.

**Q.** What about the TGI [13] of the same molecule?
**A.** The TGI was over 100 µM.

**Q.** What about the TGI [14] of the same molecule?
**A.** Its TGI is over 100 µM.

**Q.** What about the TGI [15] of the same molecule?
**A.** Its TGI is over 100 µM.

**Q.** And the TGI [16]?
**A.** Its TGI is over 100 µM.

**Q.** What about the TGI [17] of the same molecule?
**A.** Its TGI is over 100 µM.

**Q.** And the TGI [18]?
**A.** The TGI was over 100 µM.

**Q.** And the TGI [19]?
**A.** The TGI was over 100 µM.

**Q.** And the TGI [20]?
**A.** The TGI was over 100 µM.

**Q.** `Cc1occc1C(=S)Nc1ccc(Cl)c(/C=N/OC(C)(C)C)c1` was tested. Which TGI [1] did it give?
**A.** The TGI was 31.1 µM.

**Q.** And the TGI [2]?
**A.** Its TGI is 54.8 µM.

**Q.** And the TGI [3]?
**A.** The TGI was 35.6 µM.

**Q.** And the TGI [4]?
**A.** Its TGI is over 100 µM.

**Q.** And the TGI [5]?
**A.** The TGI was 34.1 µM.

**Q.** And the TGI [6]?
**A.** The TGI was 34.4 µM.

**Q.** And the TGI [7]?
**A.** The TGI was 31.7 µM.

**Q.** What about the TGI [8] of the same molecule?
**A.** Its TGI is over 56.5 µM.

**Q.** What about the TGI [9] of the same molecule?
**A.** The TGI was 42.9 µM.

**Q.** What about the TGI [10] of the same molecule?
**A.** The TGI was 53.4 µM.

**Q.** What about the TGI [11] of the same molecule?
**A.** The TGI was 40.2 µM.

**Q.** And the TGI [12]?
**A.** The TGI was 26.5 µM.

**Q.** What about the TGI [13] of the same molecule?
**A.** The TGI was 38.6 µM.

**Q.** And the TGI [14]?
**A.** Its TGI is 38.8 µM.

**Q.** What about the TGI [15] of the same molecule?
**A.** Its TGI is 32.7 µM.

**Q.** And the TGI [16]?
**A.** The TGI was 41.1 µM.

**Q.** And the TGI [17]?
**A.** Its TGI is 24.8 µM.

**Q.** And the TGI [18]?
**A.** The TGI was 31.3 µM.

**Q.** And the TGI [19]?
**A.** The TGI was 34.4 µM.

**Q.** And the TGI [20]?
**A.** Its TGI is 56.7 µM.

**Q.** Which TGI [1] does the source give for `O=C(O)C(C(=O)O)P(=S)(S)c1ccccc1` (stereo not given) here?
**A.** The TGI was over 100 µM.

**Q.** What about the TGI [2] of the same molecule?
**A.** Its TGI is over 100 µM.

**Q.** What about the TGI [3] of the same molecule?
**A.** The TGI was over 100 µM.

**Q.** What about the TGI [4] of the same molecule?
**A.** The TGI was over 100 µM.

**Q.** And the TGI [5]?
**A.** Its TGI is over 100 µM.

**Q.** And the TGI [6]?
**A.** Its TGI is over 100 µM.

**Q.** What about the TGI [7] of the same molecule?
**A.** The TGI was over 100 µM.

**Q.** And the TGI [8]?
**A.** The TGI was over 100 µM.

**Q.** And the TGI [9]?
**A.** The TGI was over 100 µM.

**Q.** What about the TGI [10] of the same molecule?
**A.** The TGI was over 100 µM.

**Q.** What about the TGI [11] of the same molecule?
**A.** The TGI was over 100 µM.

**Q.** What about the TGI [12] of the same molecule?
**A.** Its TGI is over 100 µM.

**Q.** And the TGI [13]?
**A.** Its TGI is over 100 µM.

**Q.** And the TGI [14]?
**A.** Its TGI is over 100 µM.

**Q.** And the TGI [15]?
**A.** Its TGI is over 100 µM.

**Q.** And the TGI [16]?
**A.** Its TGI is over 100 µM.

**Q.** What about the TGI [17] of the same molecule?
**A.** The TGI was over 100 µM.

**Q.** What about the TGI [18] of the same molecule?
**A.** Its TGI is over 100 µM.

**Q.** What about the TGI [19] of the same molecule?
**A.** Its TGI is over 100 µM.

**Q.** And the TGI [20]?
**A.** Its TGI is over 100 µM.
